Reference: article PMC10813753 (Biology, 2024)

System: HeLa cells
Assay: Cell cycle analysis by flow cytometry, HeLa
Format: cell-based, human
Conditions: ½ IC50 concentration, 72 h
Experimental: For cell cycle experiments, exponentially growing HeLa cells in DMEM were seeded in 6-well plates at a density of 2.5 × 10^5/well. […] Untreated cells were used as controls. After washing with PBS, cells were detached with 0.25% trypsin/0.2% EDTA and centrifuged at 1500 rpm for 5 min at rt. The resulting pellets were mixed with cold 70% ethanol (0.5 mL) and kept at 4 °C for 30 min. Ethanol was removed by centrifugation, and the pellets were washed with 2 mL PBS + 2% BSA and centrifuged. After discarding the supernatants, a propidium iodide solution (PI/RNAse, FxCycle^TM, Invitrogen^TM ref. F10797, 0.5 mL, Thermo Fisher, Madrid, Spain) was added, mixed thoroughly and incubated for 15 min at room temperature prior to analysis by flow cytometry. A total of 10,000 events were registered for each sample. The obtained results were analyzed with the MacsQuantify 2.13.1 program (Miltenyi Biotech, Pozuelo de Alarcón, Spain) and represented as histograms.

2,2′-(1,10-Phenanthroline-2,9-diyl)-bis(methylene)-bis(hydrazine-1-carbothioamide) [compound 1]
change in SubG0 population: notably increased the number of cells in SubG0
